What all share (assay type): cell-based
Data set [1] relates to human embryonic lung cells. Briefly: Cytotoxicity to human embryonic lung cells. The following applies: minimum cytotoxic concentration to human embryonic lung cells. The source says: MCC AM is the minimum cytotoxic concentration to human embryonic lung cells.
In data set [2] the test system is varicella zoster virus (VZV) YS viral strain. Briefly: VZV plaque reduction in tissue culture, YS strain. The following applies: read-out: EC50 VZV YS.
Data set [3] can be described thus: Cytotoxicity to human embryonic lung cells. As to conditions: 50% cytotoxic concentration to human embryonic lung cells.
The test system of data set [4] is varicella zoster virus (VZV) OKA viral strain. Briefly: microbe, parasite or virus in culture. The following applies: read-out: EC50 VZV OKA.
Data set [5] concerns varicella zoster virus (VZV) viral strain 07; TK deficient. Description: microbe, parasite or virus in culture. The following applies: read-out: EC50 VZV TK-07.
In data set [6] the test system is varicella zoster virus (VZV) viral strain YS; TK deficient. Briefly: VZV plaque reduction in tissue culture, strain YS, TK deficient. The following applies: read-out: EC50 VZV TK-YS.
The test system of data set [7] is human embryonic lung cells. Description: Cytotoxicity to human embryonic lung cells. The following applies: 50% cytotoxic concentration to human embryonic lung cells.
The mark [8] stands for this setting: Human alphaherpesvirus 3, 120 h, reduce viral plaque formation after 5 days by 50% compared to untreated control, YS viral strain.
The mark [9] stands for this setting: Human alphaherpesvirus 3, 120 h.
Where [10] appears, read: reduce viral plaque formation after 5 days by 50% compared to untreated control, YS viral strain.
Where [11] appears, read: reduce viral plaque formation after 5 days by 50% compared to untreated control, OKA viral strain.
The mark [12] stands for this setting: reduce viral plaque formation after 5 days by 50%, viral strain 07, TK deficient.
Where [13] appears, read: reduce viral plaque formation after 5 days by 50%, viral strain YS, TK deficient.

pEC50: −log10 of the molar value. Where two headings read alike, the source gives them in different places.

Here are results for 15 compounds from patent US8551965B2, “Anti-viral pyrimidine nucleoside analogues” (University College Cardiff Consultants Limited, priority 2000, dated 2013).

As to `Nc1nc2c(ncn2COCCO)c(=O)[nH]1` [Acyclovir, reference compound], the MCC in data set [1] is >200 µM. In addition, the pEC50 in data set [2] (setting [8]) is 6.00. Besides, the CC50 in data set [3] was > 200 µM.

Consider `O=c1[nH]c(=O)n([C@H]2C[C@H](O)[C@@H](CO)O2)cc1/C=C/Br` [BVDU, (E)-5-(2-bromo-vinyl)-2′-deoxyuridine, reference compound], for which the pEC50 in data set [2] (setting [9]) was 8.52.

`CCCCCCCCCCc1cc2cn([C@H]3C[C@H](O)[C@@H](CO)O3)c(=O)nc2o1` [Ex2 WO 98/49177, 3-(2-deoxy-β-D-ribofuranosyl)-6-decyl-2,3-dihydrofuro [2,3-d]pyrimidin-2-one, reference compound]: the MCC in data set [1] was >50 µM. Besides, the pEC50 is 8.10 in data set [2] (setting [8]), 7.82 in data set [4] (setting [9]), < 4.30 in data set [5] (setting [9]) and < 4.30 in data set [6] (setting [9]). The cytotoxic concentration (CC50) in data set [3] was > 50 µM.

With `CCCCCCCCc1ccc(-c2cc3cn([C@H]4C[C@H](O)[C@@H](CO)O4)c(=O)nc3o2)cc1` [Example 6, 3-(2′-deoxy-β-D-ribofuranosyl)-6-(4-n-octylphenyl)-2,3-dihydrofuro[2,3-d]pyrimidin-2-one], in data set [1], the MCC result is on record as “≧20 μM”. Also, the pEC50 in data set [2] (setting [10]) was 8.30; in data set [4] (setting [11]), 7.82; in data set [5] (setting [12]), < 4.70; in data set [6] (setting [13]), < 4.70. The CC50 in data set [7] is > 200 µM.

On to `O=c1nc2oc(-c3ccccc3)cc2cn1[C@H]1C[C@H](O)[C@@H](CO)O1` [Example 7, 3-(2′-deoxy-β-D-ribofuranosyl)-6-(phenyl)-2,3-dihydrofuro-[2,3-d]pyrimidin-2-one], for which the MCC in data set [1] is >200 µM. Moreover, the pEC50 is > 6.30 in data set [2] (setting [10]), > 6.30 in data set [4] (setting [11]), < 3.70 in data set [5] (setting [12]) and 3.79 in data set [6] (setting [13]). For the same compound, in data set [7], the CC50 is > 200 µM.

Turning to `Cc1ccc(-c2cc3cn([C@H]4C[C@H](O)[C@@H](CO)O4)c(=O)nc3o2)cc1` [Example 8, 3-(2′-deoxy-β-D-ribofuranosyl)-6-(4-methylphenyl)-2,3-dihydrofuro-[2,3-d]pyrimidin-2-one], in data set [1], the MCC is >200 µM. For the same compound, the pEC50 in data set [2] (setting [10]) was > 6.30; in data set [4] (setting [11]) it was > 6.30; in data set [5] (setting [12]), 3.99; in data set [6] (setting [13]), < 3.70. For the same compound, the CC50 in data set [7] is > 200 µM.

`O=c1nc2oc(-c3ccc(F)cc3)cc2cn1[C@H]1C[C@H](O)[C@@H](CO)O1` [Example 10, 3-(2′-deoxy-β-D-ribofuranosyl)-6-(4-fluorophenyl)-2,3-dihydrofuro-[2,3-d]pyrimidin-2-one] returned an MCC in data set [1] of 200 µM. Moreover, the pEC50 in data set [2] (setting [10]), in data set [4] (setting [11]), in data set [5] (setting [12]) and in data set [6] (setting [13]) was < 4.30 throughout. In data set [7], the CC50 turned out to be 171 µM.

As for `O=c1nc2oc(-c3ccc(Cl)cc3)cc2cn1[C@H]1C[C@H](O)[C@@H](CO)O1` [Example 11], in data set [1], the MCC result was “≧20 μM”. Moreover, the pEC50 is 7.10 in data set [2] (setting [8]), 7.00 in data set [4] (setting [9]), < 4.70 in data set [5] (setting [9]) and < 4.70 in data set [6] (setting [9]). Moreover, the CC50 in data set [3] was > 200 µM.

Turning to `O=c1nc2oc(-c3ccc(Br)cc3)cc2cn1[C@H]1C[C@H](O)[C@@H](CO)O1` [Example 12, 3-(2′-deoxy-β-D-ribofuranosyl)-6-(4-bromophenyl)-2,3-dihydrofuro-[2,3-d]pyrimidin-2-one], in data set [1], the MCC was >2 µM. In addition, the pEC50 in data set [2] (setting [8]) was 6.70; in data set [4] (setting [9]), 6.54; in data set [5] (setting [9]), < 5.30; in data set [6] (setting [9]) it was < 5.30. The compound also had a CC50 in data set [3] of 96 µM.

Regarding `COc1ccc(-c2cc3cn([C@H]4C[C@H](O)[C@@H](CO)O4)c(=O)nc3o2)cc1` [Example 14, 3-(2′-deoxy-β-D-ribofuranosyl)-6-(4-methoxyphenyl)-2,3-dihydrofuro-[2,3-d]pyrimidin-2-one], the MCC in data set [1] came out at 200 µM. The values for the pEC50 in data set [2] (setting [8]), in data set [5] (setting [9]) and in data set [6] (setting [9]) were 7.30, < 4.30 and < 4.30, respectively. In data set [3], the CC50 was > 200 µM.

Compound `CCOc1ccc(-c2cc3cn([C@H]4C[C@H](O)[C@@H](CO)O4)c(=O)nc3o2)cc1` [Example 15, 3-(2′-deoxy-β-D-ribofuranosyl)-6-(4-ethoxyphenyl)-2,3-dihydrofuro-[2,3-d]pyrimidin-2-one] had an MCC in data set [1] of 200 µM. For the same compound, the pEC50 was 8.00 in data set [2] (setting [8]), 4.30 in data set [5] (setting [9]) and < 4.30 in data set [6] (setting [9]). In addition, the CC50 in data set [3] is > 200 µM.

For `CCCOc1ccc(-c2cc3cn([C@H]4C[C@H](O)[C@@H](CO)O4)c(=O)nc3o2)cc1` [Example 16, 3-(2′-deoxy-β-D-ribofuranosyl)-6-(4-n-propoxyphenyl)-2,3-dihydrofuro-[2,3-d]pyrimidin-2-one], in data set [1], the MCC result is “≧200 μM”. Moreover, the pEC50 in data set [2] (setting [8]) is 8.70; in data set [5] (setting [9]), 4.96; in data set [6] (setting [9]), < 4.30. The CC50 in data set [3] was > 200 µM.

In the case of `CCCCCOc1ccc(-c2cc3cn([C@H]4C[C@H](O)[C@@H](CO)O4)c(=O)nc3o2)cc1` [Example 17, 3-(2′-deoxy-β-D-ribofuranosyl)-6-(4-n-pentoxyphenyl)-2,3-dihydrofuro-[2,3-d]pyrimidin-2-one], in data set [1], the MCC is >50 µM. The pEC50 in data set [2] (setting [8]) is 8.70; in data set [5] (setting [9]) it was 5.43; in data set [6] (setting [9]), < 4.70. Further, the CC50 in data set [3] was > 200 µM.

In the case of `CCCCCCOc1ccc(-c2cc3cn([C@H]4C[C@H](O)[C@@H](CO)O4)c(=O)nc3o2)cc1` [Example 18, 3-(2′-deoxy-β-D-ribofuranosyl)-6(4-n-hexoxyphenyl)-2,3-dihydrofuro-[2,3-d]pyrimidin-2-one], the MCC in data set [1] was >20 µM. Besides, the values for the pEC50 in data set [2] (setting [8]), in data set [5] (setting [9]) and in data set [6] (setting [9]) were 8.70, < 5.30 and < 4.70, respectively. Further, the CC50 in data set [3] is > 200 µM.

Take `CCCCCCCOc1ccc(-c2cc3cn([C@H]4C[C@H](O)[C@@H](CO)O4)c(=O)nc3o2)cc1` [Example 19, 3-(2′-deoxy-β-D-ribofuranosyl)-6-(4-n-heptoxyphenyl)-2,3-dihydrofuro-[2,3-d]pyrimidin-2-one]: the MCC entry in data set [1] was “≧50 μM”. Besides, the pEC50 in data set [2] (setting [8]) is 8.70; in data set [5] (setting [9]) it was < 4.30; in data set [6] (setting [9]) it was < 4.70. Also, in data set [3], the CC50 is > 200 µM.

One may read the pEC50 as the negative decadic logarithm of the EC50, by convention in mol/L. One may read the CC50 as the concentration at which the toxic effect on the cells reaches its halfway point. Read a high CC50 as better tolerance by the cells.
